From patent publication US9290487B2, “Pharmaceutical composition for treating diabetes” (Ajinomoto Co., Inc., priority 2011, dated 2016)

Target: human GYS1 (glycogen synthase) (Homo sapiens (Human), UniProt P13807)
Experiment: Measurement of glycogen synthase activity (coupled pyruvate kinase/lactate dehydrogenase assay, absorbance at 340 nm)
Assay type: biochemical
Settings: concentration inducing relative activity of 50% (100% = Ex. 1 of WO/2011/058154 at 10 μM); incubation at 30° C. for 25 minutes (Examples 1 to 10)
Protocol: A human GYS1 expression plasmid (pCDNA3.1(+)-hGYS1) was constructed by the following method. Using a human skeletal muscle cDNA of Human MTC Panel I (Takara Bio Inc., 636742) as a template, a human GYS1 gene was amplified by a PCR method using cloning primers (Forward Primer: ATGCCTTTAAACCGCAC (SEQ ID NO: 1), Reverse Primer: TTAGTTACGCTCCTCGC (SEQ ID NO: 2)). Using the amplified human GYS1 sequence as a template, a restriction enzyme sequence was added by a PCR method using sub-cloning primers (Forward Primer: […] (SEQ ID NO: 3), Reverse Primer: […] (SEQ ID NO: 4)). Then, the human GYS1 gene was introduced between a Xho I site and a Xba I site of pCDNA3.1(+) (Invitrogen Corporation, V790-20).
Glycogen synthase was prepared by the following method according to the published article (THE JOURNAL OF BIOLOGICAL CHEMISTRY Vol. 269, No. 41, 25534-25542, 1994). Human kidney-derived HEK293T cells were seeded in a dish (Thermo Fisher Scientific Inc., 168381) using a 10% FBS-containing DMEM (Nacalai Tesque, Inc., 0845874) medium, and cultured overnight. Then, using Lipofectamine LTX (Invitrogen Corporation, 15338-100), the human GYS1 expression vector was transfected according to the attached manual. After culturing under conditions of 37° C. and 5% CO2 for 2 days, the resultant was dissolved in a lysis buffer (50 mM Tris-HCl (pH 8.0), 10 mM EDTA, 2 mM EGTA, 100 mM NaF, 1 mM PMSF, 1 mM DTT, 1× Complete (Roche Diagnostics K. K., 1873580)), homogenized, and then centrifuged at 16000×g at 4° C. for 15 minutes. To the precipitated fraction, a lysis buffer was added. Re-dissolved fractions were used as glycogen synthase for evaluation.
The glycogen synthase activity was measured by the following method. To a polystyrene 96-well plate, a solution containing 30 mM glycylglycine (pH 7.3), 40 mM KCl, 20 mM MgCl2, 9.2% DMSO containing one of the test compounds at various concentrations, and 10 mM glucose-6-phosphate (Sigma-Aldrich Corporation, G7879) was added by 12 μL/well.
Next, a substrate solution containing 30 mM glycylglycine (pH 7.3), 4.3 mg/mL of glycogen (Sigma-Aldrich Corporation, G8876), 21.6 mM UDP-glucose (Sigma-Aldrich Corporation, U4625), 21.6 mM phosphoenolpyruvic acid (Sigma-Aldrich Corporation, P0564), and 4.05 mM NADH (Sigma-Aldrich Corporation, N8129) was added by 18 μL/well.
Further, an enzyme solution containing 50 mM Tris-HCl (pH 8.0), 27 mM DTT (Nacalai Tesque, Inc., 14128-04), 0.2 mg/mL of bovine serum albumin, 0.17 mg/mL of the glycogen synthase, 1.5 μL of a pyruvate kinase/lactate dehydrogenase solution (Sigma-Aldrich Corporation, P0294) was added by 18 μL/well to prepare a reaction solution. After the reaction solution was incubated (at 30° C. for 25 minutes for Examples 1 to 10, at 37° C. for 20 minutes for Examples 11 to 75), the absorbance at 340 nm was measured using Benchmark Plus (Bio-Rad Laboratories, Inc.).
The activities of the test compounds were calculated by the following method. The change in the absorbance (ΔA340) was calculated by subtracting the absorbance at 340 nm of the reaction solution containing the compound and DMSO from the absorbance at 340 nm of a reaction solution not containing the compound but containing only DMSO. The ΔA340 of the reaction solution containing the compound of Example 1 in WO/2011/058154 at the final concentration of 10 μM was taken as 100% to calculate the relative activity (%) of the test compounds at various concentrations. EC50 representing the concentration of the compound which induces an increase in the relative activity to 50% was calculated using XLfit (idbs).

Sequence of human GYS1 (glycogen synthase) (P13807 whole entry): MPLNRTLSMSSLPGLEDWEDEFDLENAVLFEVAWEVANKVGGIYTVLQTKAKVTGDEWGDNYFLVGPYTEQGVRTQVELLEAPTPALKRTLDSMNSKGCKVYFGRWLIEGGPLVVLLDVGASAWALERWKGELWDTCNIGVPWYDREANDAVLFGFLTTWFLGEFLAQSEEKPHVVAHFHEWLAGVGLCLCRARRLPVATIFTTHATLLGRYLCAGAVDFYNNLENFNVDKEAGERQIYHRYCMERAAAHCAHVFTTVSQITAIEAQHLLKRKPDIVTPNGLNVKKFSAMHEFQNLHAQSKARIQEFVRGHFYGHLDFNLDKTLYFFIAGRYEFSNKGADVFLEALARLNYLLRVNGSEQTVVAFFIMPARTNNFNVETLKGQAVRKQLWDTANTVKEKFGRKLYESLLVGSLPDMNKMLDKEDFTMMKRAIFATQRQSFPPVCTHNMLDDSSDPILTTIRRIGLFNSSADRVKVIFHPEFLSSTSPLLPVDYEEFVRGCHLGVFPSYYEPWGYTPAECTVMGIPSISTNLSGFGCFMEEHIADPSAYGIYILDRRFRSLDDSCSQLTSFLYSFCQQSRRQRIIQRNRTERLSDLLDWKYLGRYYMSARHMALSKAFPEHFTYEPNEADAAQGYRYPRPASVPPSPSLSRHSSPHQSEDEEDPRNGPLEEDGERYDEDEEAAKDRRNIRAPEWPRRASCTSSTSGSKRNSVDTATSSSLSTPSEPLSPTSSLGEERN

`Cc1cc2cccc(-c3ccc(OCc4cccc(C(=O)N5CCC[C@H]5C(=O)O)c4)cc3)c2o1` [compound of Ex. 8] was tested. Which EC50 did it give?
Its EC50 is 820 nM.

Same assay, conditions: concentration inducing relative activity of 50% (100% = Ex. 1 of WO/2011/058154 at 10 μM); incubation at 37° C. for 20 minutes (Examples 11 to 75)

For `O=C(O)[C@@H]1CCCN1C(=O)c1cccc(COc2ccc(-c3cc(F)c(F)c4ccoc34)cc2F)c1` [compound of Ex. 60, 1-(3-{[4-(4,5-difluoro-1-benzofuran-7-yl)-2-fluorophenoxy]methyl}benzoyl)-L-proline], which EC50 is on record?
The EC50 was 160 nM.

With `COCc1cc2c(F)c(F)cc(-c3ccc(OCc4cccc(C(=O)N5CCC[C@H]5C(=O)O)c4)cc3)c2s1` [compound of Ex. 74, 1-[3-({4-[4,5-difluoro-2-(methoxymethyl)-1-benzothien-7-yl]phenoxy}methyl)benzoyl]-L-proline] as the compound, how does the EC50 read?
Its EC50 is 200 nM.

How did the EC50 turn out when `O=C(O)[C@@H]1CCCN1C(=O)c1cccc(COc2ccc(-c3cc(F)c(F)c4c3C=CCO4)cc2)c1` [compound of Ex. 31, 1-(3-{[4-(7,8-difluoro-2H-chromen-5-yl)phenoxy]methyl}benzoyl)-L-proline] was run?
Its EC50 is 100 nM.

`N#CCOc1cc(F)c(F)cc1-c1ccc(OCc2cccc(C(=O)N3CCC[C@H]3C(=O)O)c2)cc1` [compound of Ex. 35, 1-[3-({[2′-(cyanomethoxy)-4′,5′-difluorobiphenyl-4-yl]oxy}methyl)benzoyl]-L-proline] was tested. Which EC50 did it give?
The EC50 was 15 nM.

How did the EC50 turn out when `C#CCOc1cc(-c2ccc(OCc3cccc(C(=O)N4CCC[C@H]4C(=O)O)c3)cc2)cc(F)c1F` [compound of Ex. 47, 1-[3-({[3′,4′-difluoro-5′-(prop-2-yn-1-yloxy)biphenyl-4-yl]oxy}methyl)benzoyl]-L-proline] was run?
The EC50 was 150 nM.

How did the EC50 turn out when `O=C(O)[C@@H]1CCCN1C(=O)c1cccc(COc2ccc(-c3ccc(F)c4c3C=CCO4)cc2)c1` [compound of Ex. 27, 1-(3-{[4-(8-fluoro-2H-chromen-5-yl)phenoxy]methyl}benzoyl)-L-proline] was run?
Its EC50 is 210 nM.

With `O=C(O)[C@@H]1CCN1C(=O)c1cccc(COc2ccc(-c3cc(F)c(F)c4ccoc34)cc2)c1` [compound of Ex. 59, (2S)-1-(3-{[4-(4,5-difluoro-1-benzofuran-7-yl)phenoxy]methyl}benzoyl)azetidine-2-carboxylic acid] as the compound, how does the EC50 read?
Its EC50 is 150 nM.

For `O=C(O)[C@@H]1CCCN1C(=O)c1cccc(COc2ccc(-c3cc(F)c4occc4c3)cc2)c1` [compound of Ex. 14, 1-(3-{[4-(7-fluoro-1-benzofuran-5-yl)phenoxy]methyl}benzoyl)-L-proline], which EC50 is on record?
The EC50 was 70 nM.

For `O=C(O)[C@@H]1CCCN1C(=O)c1cccc(COc2ccc(-c3c(F)cc(F)c4ccoc34)cc2)c1` [compound of Ex. 20, 1-(3-{[4-(4,6-difluoro-1-benzofuran-7-yl)phenoxy]methyl}benzoyl)-L-proline], which EC50 is on record?
The EC50 was 64 nM.

`O=C(O)[C@@H]1CCCN1C(=O)c1cccc(COc2ccc(-c3cc(F)cc4ccoc34)cc2)c1` [compound of Ex. 12, 1-(3-{[4-(5-fluoro-1-benzofuran-7-yl)phenoxy]methyl}benzoyl)-L-proline] was tested. Which EC50 did it give?
The EC50 was 350 nM.

`NC(=NO)c1cc2c(F)c(F)cc(-c3ccc(OCc4cccc(C(=O)N5CCC[C@H]5C(=O)O)c4)cc3)c2o1` [compound of Ex. 57, 1-{3-[(4-{2-[amino(hydroxyimino)methyl]4,5-difluoro-1-benzofuran-7-yl}phenoxy)methyl]benzoyl}-L-proline] was tested. Which EC50 did it give?
Its EC50 is 140 nM.

With `N#Cc1cc2c(F)c(F)cc(-c3ccc(OCc4cccc(C(=O)N5CCC[C@H]5C(=O)O)c4)cc3)c2s1` [compound of Ex. 67, 1-(3-{[4-(2-cyano-4,5-difluoro-1-benzothien-7-yl)phenoxy]methyl}benzoyl)-L-proline] as the compound, how does the EC50 read?
Its EC50 is 590 nM.

How did the EC50 turn out when `N#CCOc1cc(-c2ccc(OCc3cccc(C(=O)N4CCC[C@H]4C(=O)O)c3)cc2)cc(F)c1F` [compound of Ex. 48, 1-[3-({[3′-(cyanomethoxy)-4′,5′-difluorobiphenyl-4-yl]oxy}methyl)benzoyl]-L-proline] was run?
Its EC50 is 120 nM.

For `O=C(O)[C@@H]1CCCN1C(=O)c1cccc(COc2ccc(-c3ccc(F)c4occc34)cc2)c1` [compound of Ex. 25, 1-(3-{[4-(7-fluoro-1-benzofuran-4-yl)phenoxy]methyl}benzoyl)-L-proline], which EC50 is on record?
Its EC50 is 400 nM.

With `[2H]C([2H])([2H])Oc1cc(F)c(F)cc1-c1ccc(OCc2cccc(C(=O)N3CCC[C@H]3C(=O)O)c2)cc1` [compound of Ex. 37, 1-(3-{[(4′,5′-difluoro-2′-d3 methoxybiphenyl-4-yl)oxy]methyl}benzoyl)-L-proline] as the compound, how does the EC50 read?
The EC50 was 10 nM.

How did the EC50 turn out when `Cc1cc2c(F)c(F)cc(-c3ccc(OCc4cccc(C(=O)N5CCC[C@H]5C(=O)O)c4)cc3)c2o1` [compound of Ex. 23, 1-(3-{[4-(4,5-difluoro-2-methyl-1-benzofuran-7-yl)phenoxy]methyl}benzoyl)-L-proline] was run?
Its EC50 is 110 nM.

Target: PPAR-α (Homo sapiens (Human), UniProt Q07869)
Experiment: Measurement of PPAR-α activity (GAL4 luciferase reporter assay in CV-1 cells)
Assay type: cell-based
Settings: 100(A/B), A = maximum activity at 3, 10, 30 and 100 μM, B = compound in WO/2011/058154 at 100 μM, read-out: PPARα relative fold induction (%)
Protocol: The PPAR-α activity was measured according to the published article (THE JOURNAL OF BIOLOGICAL CHEMISTRY Vol. 270, No. 22, 12953-12956, 1995).
Plasmids used for the PPAR-α activity measurement were constructed as follows. A luciferase expression plasmid (UASx5-TK-Luc) used was obtained by introducing a sequence, in which five yeast GAL4-binding sequences are linked in tandem, upstream of a thymidine kinase promoter of pTAL-Luc (Takara Bio Inc., 6252-1). A PPAR-α receptor expression plasmid (hGR-GAL4-hPPARα) used was obtained by introducing a human GR N-terminal region (1-76 aa), a yeast GAL4 DNA-binding region (1-147 aa), and a PPARα ligand-binding region (167-468 aa) between a Not I site and a Sal I site of pExchange-1 Core Vector (Invitrogen Corporation, 211176).
A reporter assay was conducted by the following method using Cercopithecus aethiops kidney-derived CV-1 cells. The CV-1 cells were seeded in a 96-well plate (Thermo Fisher Scientific Inc., 4938) at 2×10^4 cells/well using a 10% FBS-containing DMEM (Nacalai Tesque, Inc., 0845874) medium. After culturing under conditions of 37° C. and 5% CO2 for 2 hours, the plasmids were transfected. Lipofectamine LTX (Invitrogen Corporation, 15338-100) was used for the transfection according to the attached manual. The plasmid solution was prepared by adding a mixture solution of the luciferase expression plasmid and the PPAR-α receptor expression plasmid to OPTI-MEM I (Invitrogen Corporation, 11058-021). After the transfection was conducted, the test compound was added, and cultured at 37° C. in the presence of 5% CO2 for 18 to 20 hours. After the culturing was completed, the luciferase activity was measured with Luminescensor JNR (ATTO) using Bright-Glo (Promega Corporation, E2620).
The fold induction of PPAR-α by the test compounds was calculated by the following method. For the compounds of Examples 1, 4, 5, 7, and 9, PPAR-α relative fold induction (%) was defined as 100 (A/B), where A represents the maximum value of PPAR-α activities with the test compound at 0.3 μM, 1 μM, 3 μM, 10 μM, 30 μM, and 100 μM, and B represents the PPAR-α activity with the compound in WO/2011/058154 at 100 μM. For the compounds of Examples 11, 15, 19, 22, 26, and 32, PPAR-α relative fold induction (%) was defined as 100 (A/B), where A represents the maximum value of PPAR-α activities with the test compound at 3 μM, 10 μM, 30 μM, and 100 μM, and B represents the PPAR-α activity with the compound in WO/2011/058154 at 100 μM.

Sequence of PPAR-α (Q07869 167-468): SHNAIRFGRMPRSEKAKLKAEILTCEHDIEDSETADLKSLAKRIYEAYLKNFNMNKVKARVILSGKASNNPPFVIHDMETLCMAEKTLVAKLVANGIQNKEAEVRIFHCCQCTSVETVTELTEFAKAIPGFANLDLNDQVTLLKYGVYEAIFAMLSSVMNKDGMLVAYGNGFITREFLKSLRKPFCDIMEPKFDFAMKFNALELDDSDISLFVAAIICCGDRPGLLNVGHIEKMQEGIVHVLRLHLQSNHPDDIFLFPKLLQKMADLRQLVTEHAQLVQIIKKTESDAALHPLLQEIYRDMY

Which Emax does the source give for `O=C(O)[C@@H]1CCCN1C(=O)c1cccc(COc2ccc(-c3cc(F)cc4c3OCC=C4)cc2)c1` [compound of Ex. 11] here?
Its Emax is 18%.
